Measurements from patent US20120213720A1, “Prodrug composition for skin with twin protecting groups bound by disubstituted benzene” (priority 2011, published 2012).

What was measured:
melanin synthesis = settings: cited from earlier work
skin = settings: cited from earlier work
melanocytes in the skin = settings: cited from earlier work
[1] = tested on: facial freckles and the normal facial skin; experiment: Clinical test of whitening effect of DAP-containing cream, smart skin analysis system; assay type: in vivo
Method: Moreover, for proving the whitening effect of the DAP-containing prescription according to the present invention, a clinical test was performed and used the detection device shown in Table 7. Six subjects joining the test received the cream preparation containing 1% or 2% DAP on facial freckles and the normal facial skin twice a day for consecutive […] (2010 Nov. 24-2010 Dec. 15), and the whitening effect was evaluated. [table] According to the foregoing clinical test, data graphs with respect to the disclosed prodrug composition as shown in FIG. 2 through FIG. 7 have been made, while the photographs showing the tested sites of several subjects are reflected in FIG. 8 through FIG.

Oc1ccc(OC2CCCCO2)cc1 (centres unmarked) [DA, deoxy-arbutin]
anti-melanin effect, times higher than that of HQ (melanin synthesis; relative to HQ): 10 times
anti-melanin effect, times higher than that of normal arbutin (melanin synthesis; relative to normal arbutin): 350 times
time to desired clinical effects (skin; DA solutions with proper concentration): three weeks
effect of whitening the skin (skin; local usage, clinical research for 8 weeks): progressive and apparent effect of whitening the skin
safety concentration relative to HQ (melanocytes in the skin): four times higher

c1cc(OC2CCCCO2)ccc1OC1CCCCO1 (centres unmarked) [DAP, 1,4-bis(tetrahydro-2H-pyran-2-yloxy)benzene]
side effects (toxic to melanocytes, irritative, allergenic to the skin) ([1]; four-week clinical test, 1% or 2% DAP cream twice a day): without side effects
whitening effect on the normal skin ([1]; prescription containing 1% DAP, consecutive four weeks, left cheek): up to 19%
whitening effect on the solar lentigines ([1]; prescription containing 2% DAP, consecutive four weeks, left cheek): up to 46%
